Measurements published in patent US20080194678A1, “Process To Obtain Synthetic And Semi-Synthetic Lignan Derivatives, Their Antiparasitic Activities And Corresponding Pharmaceutical Formulations, Including The Therapeutic Method Using Said Lignan For The Treatment Of Parasitosis” (Fundacao de Amparo a Pesquissa do Estado de Aao Pa, priority 2005, published 2008).
Entries after “also recorded” stand apart in the source; their conditions may differ. Read-outs that look alike come from different tables or passages of the source.

Key:
Schistosoma [1] = experiment: Schistosomicidal activity (test not specified)
S. mansoni [2] = experiment: Couples of S. mansoni recovered from infected BALB/c mice by perfusion after treatment; format: in vivo, Schistosoma mansoni; conditions: for number of S. mansoni recovered / couples of S. mansoni recovered in the treated group / efficacy: BALB/c mice; for number of S. mansoni recovered / efficacy: single dose 10 mg/kg after 40 days of infection; for couples of S. mansoni recovered in the treated group: single dose 10 mg/kg after 40 days of infection (approx. 200 cercariae), untreated group 40 couples/animal; for reduction of the viable worms: 10 mg/kg of weight, after 40 days of infection with S. mansoni
Procedure: FIG. 8—graph with the number of recovered worms vs. effect of the drug. Couples of S. mansoni recovered from BALB/c mice by perfusion of the door-kidney system. Five mice, after 40 days of infection (approximately 200 cercariae), were submitted to test with a single dose of the drug dinitrocubebine (10 mg/kg of weight). In the group untreated (negative control treated only with a 5% dimethyl sulfoxide solution in water), 40 couples/animal were recovered. In the treated group, only 5 couples were recovered. […] FIG. 9—graph with the number of recovered worms vs. effect of the drug. Couples of S. mansoni recovered from BALB/c mice by perfusion of the door-kidney system. Five mice, after 40 days of infection (approximately 200 cercariae), were submitted to test with a single dose of the drug methylcubebin (10 mg/kg of weight). In the untreated group (negative control treated only with a 5% dimethyl sulfoxide solution in water), 40 couples/animal were recovered. In the treated group, only five couples were recovered. […] In in vivo tests, the drugs (−)—O-methylcubebin (6) and (−)-6,6′-dinitronokinin (8) presented results similar to the obtained with praziquantel, in the same concentration (10 mg/kg of weight), i.e. reduction of approximately 90% of the viable worms, after 40 days of infection with S. mansoni. […] Such a result was extremely important and promising, since the drug was given to the parasites when they were still maturing and had not yet reached the evolutive form of adult worms. […] Thus, the developed medicine may be used not only as a healing drug, but also as a prophylactic drug in the combat against schistosomosis. Another advantage relates to the low toxicity of these substances for use in antiparasitic therapeutics, since many of these derivatives have hepatic-protecting and antioxidant action. Thus, the use of these lignans certainly offers higher safety for therapeutic use than praziquantel. So, the use of these substances in medicines for longer treatments is safer than with praziquantel and they have nearly no significant side effects. Finally, this group of substances is obtained from natural sources, which is not applicable to praziquantel.

[3] = test system: Schistosoma mansoni (evolutive stage of adult worm); experiment: In vitro culture of Schistosoma mansoni adult worm couples (motility, separation, egglaying, tegument, death); format: cell-based; conditions: for time to considerable increase in the motility of parasite couples / time to separation of parasite couples: 14.0 and 7.0 μg/ml; for change in tegument or death of parasites: worms analyzed for 5 days
Procedure: FIG. 1—effect of the drugs (−)-hinokinin (3) and (−)-O—(N,N-dimethylamino-ethyl) cubebin (4), in concentrations of 14, 7.5 and 3.5 μg/ml, under the parasite Schistosoma mansoni's egglaying during 5 days of culture.
FIG. 2—effect of the drug (−)-6,6-dinitroinokinin (8), in concentrations of 14, 7.5 and 3.5 μg/ml, under the parasite Schistosoma mansoni's egglaying during 5 days of culture.
FIG. 3—effect of the drug (−)—O-methylcubebin (5), in concentrations of 14, 7.5 and 3.5 μg/ml, under the parasite Schistosoma mansoni's egglaying during 5 days of culture
FIG. 4—parasite Schistosoma mansoni (evolutive stage of adult worm) cultivated in vitro in RPMI 1640 medium, in 5% CO2 atmosphere at 37° C. for 24 hours, in the absence and presence of the drug (−)-6,6-dinitroinokinin (8). A and C, male and female parasites, respectively, cultivated in the absence of substances. B and D, male and female parasite, respectively, cultivated in the presence of the Drug (the same effect was noticed in concentrations of 14.0, 7.0 and 3.0 μg/ml) Inverted light microscope, 4× magnification.
Two hours after the addition of substances 3 and 5 in concentrations of 14.0 and 7.0 μg/ml, considerable increase in the motility of parasite couples was noticed, ending up with their separation after 18 hours.

[4] = test system: Schistosoma mansoni (evolutive stage of adult worm); experiment: as above; format: cell-based; conditions: 14.0, 7.0 and 3.5 μg/ml
S. mansoni [5] = experiment: Couples of S. mansoni recovered from infected BALB/c mice by perfusion after treatment; format: in vivo, Schistosoma mansoni; conditions: after 7 and 21 days of infection
Schistosoma [6] = conditions: cited from earlier work; for side effects: patients
S. mansoni [7] = conditions: vertebrate host; cited from earlier work
[8] = 3.5 μg/ml, after 24 hours of culture

O=[N+]([O-])c1cc2c(cc1CC1COC(O)C1Cc1cc3c(cc1[N+](=O)[O-])OCO3)OCO2 (single isomer, unassigned; (-)) [8a, (−)-6,6′-dinitrocubebin]
schistosomicidal activity (Schistosoma [1]): significant schistosomicidal activity
number of S. mansoni recovered (S. mansoni [2]): about 10%
couples of S. mansoni recovered in the treated group (S. mansoni [2]): 5 couples

CC(=O)OC1OC[C@H](Cc2ccc3c(c2)OCO3)[C@H]1Cc1ccc2c(c1)OCO2 (single isomer, unassigned; (-)) [compound 4, (−)-O-acetylcubebin]
schistosomicidal activity (Schistosoma [1]): significant schistosomicidal activity

CN(C)CCOC1OCC(Cc2ccc3c(c2)OCO3)C1Cc1ccc2c(c1)OCO2 (single isomer, unassigned; (-)) [compound 5, (−)-O—(N,N-dimethylaminoethyl)-cubebin]
schistosomicidal activity (Schistosoma [1]): significant schistosomicidal activity
time to increase in the motility of couples ([3]; 3.5 μg/ml): 24 h
time to separation of the couples ([3]; 3.5 μg/ml): 36 h
effect on egglaying [3, 8]: considerable reduction of egglaying
time to considerable increase in the motility of parasite couples [3]: Two
time to separation of parasite couples [3]: 18 h
change in tegument or death of parasites ([3]; 14.0, 7.0 and 3.5 μg/ml): no apparent change in tegument or death of parasites

COC1OC[C@@H](Cc2ccc3c(c2)OCO3)[C@@H]1Cc1ccc2c(c1)OCO2 (single isomer, unassigned; (-)) [compound 6, (−)-O-methylcubebin]
tegument (cutaneous) lesions in male and female parasites [4]: did not produce cutaneous lesions
schistosomicidal activity (Schistosoma [1]): significant schistosomicidal activity
reduction of the viable worms (S. mansoni [5]; two doses 10 mg/kg of weight): approximately 90%
action on intermediary forms of the parasite (schistosomulus) in the vertebrate host (S. mansoni [5]; two doses 10 mg/kg): also acts on the intermediary forms of the parasite (schistosomulus)
increase in motility of couples ([3]; 14, 7.5 and 3.5 μg/ml): increased the motility of couples after the first hour of culture
time to separation of the parasites ([3]; 14, 7.5 and 3.5 μg/ml): ≤ 12 h
reduction of the viable worms (S. mansoni [2]): approximately 90%
efficacy (S. mansoni [2]): around 93%
number of S. mansoni recovered (S. mansoni [2]): about 10%
couples of S. mansoni recovered in the treated group (S. mansoni [2]): five

c1ccc(COC2OC[C@@H](Cc3ccc4c(c3)OCO4)[C@@H]2Cc2ccc3c(c2)OCO3)cc1 (single isomer, unassigned; (-)) [compound 7, (−)-O-benzylcubebin]
schistosomicidal activity (Schistosoma [1]): significant schistosomicidal activity

Nc1cc2c(cc1CC1COC(=O)C1Cc1cc3c(cc1N)OCO3)OCO2 (single isomer, unassigned; (-)) [compound 9, (−)-6,6′-diaminonokinin]
schistosomicidal activity (Schistosoma [1]): significant schistosomicidal activity

COc1ccc([C@H]2O[C@@H](c3ccc(OC)c(OC)c3)[C@H](C)[C@@H]2C)cc1OC [14b, galgravin]
schistosomicidal activity (Schistosoma [1]): significant schistosomicidal activity

COc1cc([C@H]2O[C@@H](c3ccc(OC)c(OC)c3)[C@H](C)[C@@H]2C)ccc1O [14c, nectandrin A]
schistosomicidal activity (Schistosoma [1]): significant schistosomicidal activity

COc1cc([C@H]2O[C@@H](c3ccc(O)c(OC)c3)[C@H](C)[C@@H]2C)ccc1O [14d, nectandrin B]
schistosomicidal activity (Schistosoma [1]): significant schistosomicidal activity

COc1ccc([C@H]2O[C@@H](c3ccc(OC)c(OC)c3)[C@H](C)[C@H]2C)cc1OC [15b, veragensin]
schistosomicidal activity (Schistosoma [1]): significant schistosomicidal activity

COc1ccc([C@H]2O[C@H](c3ccc(OC)c(OC)c3)[C@@H](C)[C@H]2C)cc1OC [16a, ganschisandrin]
schistosomicidal activity (Schistosoma [1]): significant schistosomicidal activity

CC(C)NCC1CCc2cc(CO)c([N+](=O)[O-])cc2N1 (stereo not shown) [Oxamniquin, oxamniquin]
cases in which the drug is effective (Schistosoma [6]; adults): about 80%
cases in which the drug is effective (Schistosoma [6]; children): ~65%
side effects (Schistosoma [6]): cephalgia, sleepiness, nausea, tremors and rarely convulsions

COc1ccc(C[C@H]2C(=O)OC[C@@H]2Cc2ccc3c(c2)OCO3)cc1OC [compound 1, (−)-methylpluviatolide]
schistosomicidal activity (Schistosoma [1]): significant schistosomicidal activity

O[C@H]1OC[C@H](Cc2ccc3c(c2)OCO3)[C@H]1Cc1ccc2c(c1)OCO2 [compound 2, (−)-cubebin]
schistosomicidal activity (Schistosoma [1]): significant schistosomicidal activity

O=C1OC[C@H](Cc2ccc3c(c2)OCO3)[C@H]1Cc1ccc2c(c1)OCO2 [compound 3, (−)-hinokinin]
schistosomicidal activity (Schistosoma [1]): significant schistosomicidal activity
time to increase in the motility of couples ([3]; 3.5 μg/ml): 24 h
time to separation of the couples ([3]; 3.5 μg/ml): 36 h
effect on egglaying [3, 8]: considerable reduction of egglaying
time to considerable increase in the motility of parasite couples [3]: Two
time to separation of parasite couples [3]: 18 h
change in tegument or death of parasites ([3]; 14.0, 7.0 and 3.5 μg/ml): no apparent change in tegument or death of parasites

O=C1OC[C@H](Cc2cc3c(cc2[N+](=O)[O-])OCO3)[C@H]1Cc1cc2c(cc1[N+](=O)[O-])OCO2 [compound 8, (−)-6,6′-dinitroinokinin]
tegument (cutaneous) lesions in male and female parasites [4]: strong tegument lesions in both male and female parasites; also recorded: very evident tegument lesions
schistosomicidal activity (Schistosoma [1]): significant schistosomicidal activity
time to death of parasites ([3]; 3.5 μg/ml): 36 h
time to death of parasites ([3]; 7.0 μg/ml): 24 h
time to death of parasites ([3]; 14.0 μg/ml): 20 h
death of the parasites ([3]; 14.0, 7.0 and 3.5 μg/ml): causing their death
increase in motility of couples ([3]; 14, 7.5 and 3.5 μg/ml): considerable increase in motility in the first hour of culture
time to separation of the parasites ([3]; 14, 7.5 and 3.5 μg/ml): 12 h
effect on egglaying ([3]; 14, 7.5 and 3.5 μg/ml, after separation): interruption in egglaying
reduction of the viable worms (S. mansoni [2]): approximately 90%
efficacy (S. mansoni [2]): around 90%

COc1cc(OC)c([C@H]2[C@H](C)[C@@H](c3cc(OC)c(OC)cc3OC)O[C@H]2C)cc1OC [compound 17, magnosalicin]
schistosomicidal activity (Schistosoma [1]): significant schistosomicidal activity

O=C(C1CCCCC1)N1CC(=O)N2CCc3ccccc3C2C1 (stereo not shown) [praziquantel]
side effects (Schistosoma [6]): abdominal pain, diarrhea, fever and urticaria-shaped reactions
evolutive form of S. mansoni acted on (S. mansoni [7]): acts only on the evolutive form of adult worms
reduction of the viable worms (S. mansoni [2]): approximately 90%

aristolignine [15c]
schistosomicidal activity (Schistosoma [1]): significant schistosomicidal activity

caloptin [15a]
schistosomicidal activity (Schistosoma [1]): significant schistosomicidal activity

machilin [14a]
schistosomicidal activity (Schistosoma [1]): significant schistosomicidal activity

morelensine [1a]
schistosomicidal activity (Schistosoma [1]): significant schistosomicidal activity

nectandrin D [16b]
schistosomicidal activity (Schistosoma [1]): significant schistosomicidal activity

nectandrin E [16c]
schistosomicidal activity (Schistosoma [1]): significant schistosomicidal activity
